The values below come from US12325697B2 (Nimbus Clio, Inc., priority 2021, dated 2025).

Test [1] deals with Recombinant human c-Cbl (aa 47-435) (Homo sapiens (Human), UniProt P22681). Briefly: c-Cbl Biochemical Assay (TR-FRET). The protocol: Recombinant human c-Cbl (aa 47-435) was expressed in E. coli, purified and biotinylated in vitro. The protein was diluted to 12 nM in freshly prepared assay buffer consisting of 50 mM HEPES, pH 7.0, 100 mM NaCl, 5 mM MgCl2, 0.01% Triton-X 100, 0.01% BSA and 1 mM DTT. Recombinant human Src (aa 254-536)-[…]-Zap-70 (aa 281-297) fusion protein was expressed in E. coli and purified. Protein was diluted in assay buffer to 5-20 nM and ATP was added to 1 mM. Recombinant human UBE2D2([…]) was expressed in E. coli, purified and ubiquitinated and Bodipy labelled in vitro. Protein was diluted to 200 nM in assay buffer without MgCl2 (or Cisbio PPI buffer). Streptavidin-Terbium was added to 2 nM and EDTA to 10 mM, to provide a binding assay mix. Compounds were dissolved in DMSO and diluted to prepare a ten-point half log dilution series. 100 nl of each compound concentration was dispensed in duplicate in a 384 well black assay plate using acoustic dispensing. Wells for maximum signal controls received 100 nl of DMSO only and wells for minimum controls received 100 nl of a reference inhibitor compound at a final assay concentration of […] to produce 100% inhibition. 5 μl of diluted c-cbl enzyme was added to all wells of the assay plate and incubated at RT for 30 min. The enzyme assay was initiated by addition of 5 μl of Src-Zap/ATP mix to all wells, and the plate incubated at RT for 60-90 min. The enzyme reaction was terminated and the binding reaction was initiated by adding 10 μl of binding assay mix to all wells and incubating the plate at RT for 60 min prior to assay read. Final assay conditions consisted of 6 nM c-cbl, 2.5-10 nM Src-Zap70, 0.5 mM ATP, 1% (v/v) DMSO (enzyme reaction) and 100 nM UBE2D2([…])-Ub-FL-BODIPY, 5 mM EDTA, 1 nM Streptavidin-Tb (binding reaction). The HTRF assay signal was measured at 520 nm on an Envision plate reader, with reference signal at 485 or 620 nm. Data was normalized using maximum and minimum assay controls: % Inhibition=100-(100*((maximum control)-unknown)/(maximum control-minimum control)). A 4-parameter dose-response equation was used to fit the normalized dose-response data and derive an IC50 for test compounds.
Chain of Recombinant human c-Cbl (aa 47-435) (P22681 47-435): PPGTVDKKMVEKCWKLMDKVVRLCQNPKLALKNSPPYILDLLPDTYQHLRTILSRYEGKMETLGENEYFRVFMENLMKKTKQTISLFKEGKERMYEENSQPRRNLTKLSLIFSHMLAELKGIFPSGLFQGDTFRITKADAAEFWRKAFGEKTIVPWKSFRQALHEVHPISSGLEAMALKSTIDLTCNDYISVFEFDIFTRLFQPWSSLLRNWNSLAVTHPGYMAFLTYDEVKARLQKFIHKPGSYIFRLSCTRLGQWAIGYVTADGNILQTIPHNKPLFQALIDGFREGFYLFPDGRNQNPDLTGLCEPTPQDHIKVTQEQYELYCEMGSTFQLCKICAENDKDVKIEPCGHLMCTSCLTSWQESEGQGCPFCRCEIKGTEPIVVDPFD
For orientation: In TR-FRET formats the signal depends on donor and acceptor labels being close together.

In test [2] the target is Recombinant human Cbl-b (aa 36-427) (Homo sapiens (Human), UniProt Q13191). The test can be described thus: Cbl-b Biochemical Assay (TR-FRET). Particulars: read-out: TR-FRET hCbl-b IC50. The method in brief:
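IC50 from 4-parameter fit of % inhibition (DMSO max, reference-inhibitor min), duplicate ten-point series. Compound preincubated with 6 nM Cbl-b, then Src-Zap70 (1-2.5 nM)/0.5 mM ATP reaction 60 min RT; EDTA quench with labelled UBE2D2-Ub and streptavidin-terbium, 60 min, HTRF at 520 nm.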

pIC50: −log10 of the molar value.

Chain of Recombinant human Cbl-b (aa 36-427) (Q13191 36-427): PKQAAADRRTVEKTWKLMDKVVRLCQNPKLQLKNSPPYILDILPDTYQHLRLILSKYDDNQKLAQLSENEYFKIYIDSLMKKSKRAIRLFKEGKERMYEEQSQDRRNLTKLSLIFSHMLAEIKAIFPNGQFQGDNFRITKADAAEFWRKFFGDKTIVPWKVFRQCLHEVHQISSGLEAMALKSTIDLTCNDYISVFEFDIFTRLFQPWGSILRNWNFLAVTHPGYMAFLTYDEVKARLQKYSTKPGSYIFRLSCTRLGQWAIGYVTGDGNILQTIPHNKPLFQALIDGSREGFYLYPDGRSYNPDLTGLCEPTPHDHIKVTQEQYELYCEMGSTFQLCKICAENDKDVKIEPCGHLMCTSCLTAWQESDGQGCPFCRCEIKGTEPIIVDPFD

Turning to `Cn1cnnc1-c1cc(F)ccc1-c1cc(C2CC2)nc(N2Cc3c(F)cc(CO)cc3C2=O)c1` [AMI-1, 2-{6-Cyclopropyl-4-[4-fluoro-2-(4-methyl-1,2,4-triazol-3-yl)phenyl]pyridin-2-yl}-4-fluoro-6-(hydroxymethyl)-3H-isoindol-1-one], the pIC50 in test [1] and in test [2] was ≥ 6.70 throughout.

`Cn1cnnc1-c1cc(C#N)ccc1-c1cc(C2CC2)nc(N2Cc3ccc(CNCC4CC4)cc3C2=O)c1` [AIB-2, 4-(2-Cyclopropyl-6-(6-(((cyclopropylmethyl)amino)methyl)-1-oxoisoindolin-2-yl)pyridin-4-yl)-3-(4-methyl-4H-1,2,4-triazol-3-yl)benzonitrile]: the pIC50 in test [1] and in test [2] was ≥ 6.70 in each case.

On to `CNCc1ccc2c(c1)C(=O)N(c1cc(-c3ccc(C#N)cc3-c3nncn3C)cc(C3CC3)n1)C2` [AIT-1, 4-(2-cyclopropyl-6-{6-[(methylamino)methyl]-1-oxo-3H-isoindol-2-yl}pyridin-4-yl)-3-(4-methyl-1,2,4-triazol-3-yl)benzonitrile], for which the pIC50 in test [1] and in test [2] was ≥ 6.70 each time.

In the case of `Cn1cnnc1-c1cc(C#N)ccc1-c1cc(C2CC2)nc(N2Cc3ccc(CNC[C@H]4CCOC4)cc3C2=O)c1` [ANZ-2, 4-{2-Cyclopropyl-6-[1-oxo-6-({[(3R)-oxolan-3-ylmethyl]amino}methyl)-3H-isoindol-2-yl]pyridin-4-yl}-3-(4-methyl-1,2,4-triazol-3-yl)benzonitrile], the pIC50 in test [1] and in test [2] was ≥ 6.70 throughout.

On to `COCCNCc1cc(F)c2c(c1)C(=O)N(c1cc(-c3ccc(C#N)cc3-c3nncn3C)cc(C(F)(F)F)n1)C2` [ALN-2, 4-[2-(4-Fluoro-6-{[(2-methoxyethyl)amino]methyl}-1-oxo-3H-isoindol-2-yl)-6-(trifluoromethyl)pyridin-4-yl]-3-(4-methyl-1,2,4-triazol-3-yl)benzonitrile], for which the pIC50 in test [1] and in test [2] was ≥ 6.70 each time.

As for `CCNc1cnc(N2Cc3c(cc(CO)cc3C(F)(F)F)C2=O)cc1-c1ccc(F)cc1-c1nncn1C` [AHN-9, 2-(5-(Ethylamino)-4-(4-fluoro-2-(4-methyl-4H-1,2,4-triazol-3-yl)phenyl)pyridin-2-yl)-6-(hydroxymethyl)-4-(trifluoromethyl)isoindolin-1-one], the negative logarithm of the IC50 (pIC50) in test [1] and in test [2] was 4.30 to 5.00 in each case.

As for `Cn1cnnc1-c1cc(C#N)ccc1-c1cc(C2CC2)nc(N2Cc3ccc(CNCC4COC4)cc3C2=O)c1` [AHZ-2, 4-[2-Cyclopropyl-6-(6-{1[(oxetan-3-ylmethyl)amino]methyl}-1-oxo-3H-isoindol-2-yl)pyridin-4-yl]-3-(4-methyl-1,2,4-triazol-3-yl)benzonitrile], the negative logarithm of the IC50 (pIC50) in test [1] and in test [2] was ≥ 6.70 throughout.

As to `COC[C@H](C)NCc1ccc2c(c1)C(=O)N(c1cc(-c3ccc(C#N)cc3-c3nncn3C)cc(C3CC3)n1)C2` [AIR-2, (S)-4-(2-cyclopropyl-6-(6-(((1-methoxypropan-2-yl)amino)methyl)-1-oxoisoindolin-2-yl)pyridin-4-yl)-3-(4-methyl-4H-1,2,4-triazol-3-yl)benzonitrile], the negative-log IC50 (pIC50) in test [1] and in test [2] was ≥ 6.70 throughout.

Regarding `Cn1cnnc1-c1cc(C#N)ccc1-c1cc(C2CC2)nc(N2Cc3ccc(CNCC4(C#N)CCC4)cc3C2=O)c1` [AKF-2, 4-{2-[6-({[(1-Cyanocyclobutyl)methyl]amino}methyl)-1-oxo-3H-isoindol-2-yl]-6-cyclopropylpyridin-4-yl}-3-(4-methyl-1,2,4-triazol-3-yl)benzonitrile], the negative-log IC50 (pIC50) in test [1] and in test [2] was ≥ 6.70 throughout.

Regarding `Cn1cnnc1-c1cc(C#N)ccc1-c1cc(C2CC2)nc(N2Cc3c(F)cc(CN4CC[C@H]5C[C@H]54)cc3C2=O)c1` [AMX-3, 4-(2-{6-[(1R,5S)-2-Azabicyclo[3.1.0]hexan-2-ylmethyl]-4-fluoro-1-oxo-3H-isoindol-2-yl}-6-cyclopropylpyridin-4-yl)-3-(4-methyl-1,2,4-triazol-3-yl)benzonitrile], the pIC50 in test [1] and in test [2] was ≥ 6.70 throughout.

On to `Cn1cnnc1-c1cc(F)ccc1-c1cc(C2CC2)nc(N2Cc3cc(Cl)c(CN[C@@H]4CCC[C@@H]4O)cc3C2=O)c1` [ANR-2, 5-Chloro-2-{6-cyclopropyl-4-[4-fluoro-2-(4-methyl-1,2,4-triazol-3-yl)phenyl]pyridin-2-yl}-6-({[(1R,2S)-2-hydroxycyclopentyl]amino}methyl)-3H-isoindol-1-one], for which the pIC50 in test [1] and in test [2] was ≥ 6.70 in each case.

In the case of `Cn1cnnc1-c1cc(C#N)ccc1-c1cc(C2CC2)nc(N2Cc3c(Br)cc(CO)cc3C2=O)c1` [ALA-5, 4-{2-[4-Bromo-6-(hydroxymethyl)-1-oxo-3H-isoindol-2-yl]-6-cyclopropylpyridin-4-yl}-3-(4-methyl-1,2,4-triazol-3-yl)benzonitrile], the negative logarithm of the IC50 (pIC50) in test [1] and in test [2] was ≥ 6.70 in each case.

With `CC(NCC1CC1)c1ccc2c(c1)C(=O)N(c1cc(-c3ccc(C#N)cc3-c3nncn3C)cc(C3CC3)n1)C2` (stereo not shown) [AJI-1, 4-(2-Cyclopropyl-6-(6-(1-((cyclopropylmethyl)amino)ethyl)-1-oxoisoindolin-2-yl)pyridin-4-yl)-3-(4-methyl-4H-1,2,4-triazol-3-yl)benzonitrile], the negative logarithm of the IC50 (pIC50) in test [1] and in test [2] was ≥ 6.70 each time.

For the molecule `C#CCOc1ccc(-c2cc(NCC)nc(N3Cc4c(cccc4C(F)(F)F)C3=O)c2)c(-c2nncn2C)c1` [AHU-12, 2-[6-(Ethylamino)-4-[2-(4-methyl-1,2,4-triazol-3-yl)-4-(prop-2-yn-1-yloxy)phenyl]pyridin-2-yl]-4-(trifluoromethyl)-3H-isoindol-1-one], the pIC50 – broadly, the negative decadic logarithm of the IC50, by convention in mol/L – in test [1] was 6.00 to 6.70; in test [2], ≥ 6.70.

For `Cn1cnnc1-c1cc(C#N)ccc1-c1cc(C2CC2)nc(N2Cc3cnc(CO)cc3C2=O)c1` [ALE-7, 4-{2-Cyclopropyl-6-[6-(hydroxymethyl)-1-oxo-3H-pyrrolo[3,4-c]pyridin-2-yl]pyridin-4-yl}-3-(4-methyl-1,2,4-triazol-3-yl)benzonitrile], the pIC50 is ≥ 6.70 in test [1] and 6.00 to 6.70 in test [2].

In the case of `Cn1cnnc1-c1cc(C#N)ccc1-c1cc(C2CC2)nc(N2Cc3ccc(CNC(C)(C)C4CCC4)cc3C2=O)c1` [AOM-2, 4-[2-(6-{[(2-Cyclobutylpropan-2-yl)amino]methyl}-1-oxo-3H-isoindol-2-yl)-6-cyclopropylpyridin-4-yl]-3-(4-methyl-1,2,4-triazol-3-yl)benzonitrile], the negative logarithm of the IC50 (pIC50) in test [1] and in test [2] was ≥ 6.70 each time.

In the case of `Cn1cnnc1-c1cc(C#N)ccc1-c1cc(C2CC2)nc(N2Cc3ccc(CNC(C)(C)C4COC4)cc3C2=O)c1` [ANM-2, 4-{2-Cyclopropyl-6-[6-({[2-(oxetan-3-yl)propan-2-yl]amino}methyl)-1-oxo-3H-isoindol-2-yl]pyridin-4-yl}-3-(4-methyl-1,2,4-triazol-3-yl)benzonitrile], the pIC50 in test [1] and in test [2] was ≥ 6.70 each time.

Consider `Cn1cnnc1-c1cc(C#N)ccc1-c1cc(C2CC2)nc(N2Cc3ccc(CN4CCOC5(COC5)C4)cc3C2=O)c1` [AOO-2, 4-[2-Cyclopropyl-6-(6-{2,5-dioxa-8-azaspiro[3.5]nonan-8-ylmethyl}-1-oxo-3H-isoindol-2-yl)pyridin-4-yl]-3-(4-methyl-1,2,4-triazol-3-yl)benzonitrile], for which the pIC50 in test [1] and in test [2] was ≥ 6.70 throughout.

Regarding `COC[C@H](C)NCc1cc(F)c2c(c1)C(=O)N(c1cc(-c3ccc(C#N)cc3-c3nncn3C)cc(C3CC3)n1)C2` [AKG-1, 4-{2-Cyclopropyl-6-[4-fluoro-6-({[(2S)-1-methoxypropan-2-yl]amino}methyl)-1-oxo-3H-isoindol-2-yl]pyridin-4-yl}-3-(4-methyl-1,2,4-triazol-3-yl)benzonitrile], the pIC50 in test [1] and in test [2] was ≥ 6.70 each time.

On to `Cn1cnnc1-c1cc(C#N)ccc1-c1cc(C2CC2)nc(N2Cc3ccc(CN4C[C@@H]5C[C@H]4CO5)cc3C2=O)c1` [AMN-1, 4-(2-Cyclopropyl-6-{6-[(1S,4S)-2-oxa-5-azabicyclo[2.2.1]heptan-5-ylmethyl]-1-oxo-3H-isoindol-2-yl}pyridin-4-yl)-3-(4-methyl-1,2,4-triazol-3-yl)benzonitrile], for which the negative logarithm of the IC50 (pIC50) in test [1] and in test [2] was ≥ 6.70 each time.
